Test results as given in a melting point compilation (Tetko et al.; mined from patent text by program, amines drawn as free bases though some values may be those of a salt).

Row | Compound | melting point [°C]
1 | COC(=O)c1cn(C2CC2)c2nc(C)ccc2c1=O | 204 to 205
2 | CC(C(=O)N(C)C)n1nc(-c2ccccc2)c2c1CCCC2 (centres undefined) | 101 to 103
3 | CCc1c(C)sc(NC(=O)OC(C)(C)C)c1C(=O)O | 196 to 197
4 | CC(C(=O)O)C1CCCCC1 (centres undefined) | 63 to 64
5 | O=C(c1ccc(OC2CCCCC2N2CCCC2)c(F)c1)c1c(-c2ccc(OCCN3CCCC3)cc2)sc2cc(OCc3ccccc3)ccc12 (centres undefined) | 47 to 51
6 | O=C(COc1ccc(CN2CCCC2)cc1)Nc1ccc(Br)cc1 | 143 to 145
7 | O=C(O)CCc1oc(-c2ccc3c(c2)OCO3)nc1-c1ccc(Cl)cc1 | 199 to 200
8 | OC1c2cc(OCc3ccc4ccccc4n3)ccc2OCC1Oc1ccccc1 (centres undefined) | 151 to 153
9 | CCCCC1c2ccccc2-c2cc(Br)ccc2N1S(=O)(=O)c1ccc(O)cc1 (centres undefined) | 178 to 180
10 | O=[N+]([O-])c1ccc(F)c(-c2ccncc2)c1F | 110 to 112
11 | CCOC(=O)C1Cc2[nH]c3ccc(OC)cc3c2C1 (centres undefined) | 82 to 83
12 | OCC#Cc1cccnc1 | 99 to 100
13 | CC1=CC(C)(C)Nc2ccc(O)cc21 | 182 to 184
14 | CC(C)c1c(CC[C@@H]2C[C@@H](O)CC(=O)O2)n(-c2ccc(F)cc2)c(=O)c2ccccc12 | 192 to 193
15 | CN1C(=O)C(C2=COc3ccccc3O2)=C(c2cn(C(=O)OC(C)(C)C)c3cc(OCc4ccccc4)ccc23)C1=O | 88
16 | CS(=O)c1nnc(-c2ccc3occ(-c4ccc(OC(F)(F)F)cc4)c3c2)o1 (centres undefined) | 134 to 135
17 | Nc1cnc(-c2ccc(F)cc2)n(CC(=O)NC(Cc2ccccc2)C(=O)c2nc3ccccc3o2)c1=O (centres undefined) | 233 to 236
18 | CCC(=O)ON=C(c1ccccc1)c1cc(C(C)(C)C)c(O)c(C(C)(C)C)c1 | 132 to 134
19 | CN(C)c1nonc1-c1nc2ccccc2n1CC(=O)c1ccc(Cl)cc1 | 120 to 123
20 | O=C(O)CC1CCCN(C(=O)c2ccc(NC(=O)COc3ccccc3)cc2)c2ccccc21 (centres undefined) | 102 to 106
21 | CC(=O)OC1CC2CCC3C4CC(N5CCCCC5)C(=O)C4(C)CCC3C2(C)CC1N1CCCCC1 (centres undefined) | 154
22 | C[Si](C)(C)c1cccc(I)c1C(=O)NC1CC1 | 162 to 164
23 | COc1ccc(C(C)(C)C)cc1C=Cc1ccc(C=O)cc1 | 82 to 83
24 | Cc1c(CCCC(=O)O)cccc1C(=O)c1ccc(Cl)cc1 | 124
25 | COc1ccc(-c2c(C)c3cc(OC)ccc3n2CCCCCCBr)cc1 | 60

Row | Compound | melting point [°C]
26 | CC1CCC(N(CC2CCCC(CN(C(=O)Nc3ccc(N(C)C)cc3)C3CCC(C)CC3)C2)C(=O)Nc2ccc(N(C)C)cc2)CC1 (centres undefined) | 106 to 110
27 | CCCCCCCCC=CCCCCCCCCN1CC(C(=O)OC)N(S(=O)(=O)c2ccc(-c3ccc(Br)cc3)cc2)CC1=O (centres undefined) | 108
28 | COC(=O)C(=O)Nc1ccc(C#N)c(NC(=O)C(=O)OC)c1 | 155 to 160
29 | O=C(C1CCN(CCO)CC1)N1CCN2C(=O)OC(c3ccccc3)(c3ccccc3)C2C1 (centres undefined) | 160 to 162
30 | CC(ON(C(C)(C)CO)C(C)(C)CO)c1ccccc1 (centres undefined) | 79 to 81
31 | O=[N+]([O-])c1ccc(N(CCO)CCO)cc1 | 102 to 104
32 | CC(C)(C)c1ccc(-c2nnc(-c3ccc(C(=O)O)cc3N)o2)cc1 | 266 to 268
33 | O=C(O)c1c[nH]c2cn[nH]c2c1=O | > 330
34 | Cc1nnnn1C(C=O)=C(c1ccc(F)cc1)c1ccc(F)cc1 | 151 to 152
35 | CCOP(=O)(OCC)c1ccc(/C=C(\C)c2ccc3c(c2)C(C)(C)CCC3(C)C)cc1 | 72.5 to 73.5
36 | CCCc1ccc(Cc2cccc(NC(N)=O)c2)n1CCC | 123 to 126
37 | Cc1ccccc1C(=O)c1ccc(Nc2ccccc2NC(=O)CO)cc1Cl | 127 to 129
38 | COc1ccc(CSC#N)cc1OCc1ccccc1 | 70 to 74
39 | CC1(C)C(=O)Nc2cc3oc(Cc4ccncc4)nc3cc21 | 208 to 211
40 | O=C(O)c1ccc(C(=O)c2ccc(Br)cc2)cc1 | 270 to 271
41 | COC(=O)CCNC(=O)c1ccc2c(c1)nc(-c1ccc(C#N)cc1)n2CCC(c1ccccc1)c1ccccc1 | 157 to 159
42 | CC(C)(C)c1cc(-c2nnc(S(C)(=O)=O)s2)cc(C(C)(C)C)c1O | 156
43 | Clc1ccc(O[C@@H]2CCNC[C@H]2c2ccccc2)cc1 (relative stereo) | 102 to 103
44 | Cc1cc(CN(Cc2cc(C(F)(F)F)cc(C(F)(F)F)c2)c2nnn(C)n2)c(N(CC2CC2)CC2CC2)nc1C | 103
45 | CNc1nc(N)nc(-c2ccccc2)c1-c1ccc(=O)n(C(C)C)n1 | 268 to 270
46 | O=c1[nH]c2ccc3cccnc3c2o1 | > 300
47 | N#CC(C#N)=C(Cl)c1ccc(C(Cl)=C(C#N)C#N)cc1 | 177 to 179
48 | Cc1cc(-c2ccc(C(F)(F)F)nc2)nc(-c2cccc(-c3cccc(S(N)(=O)=O)c3)c2)n1 | 220
49 | CCCCC(O)c1cccc(NC(=O)OCc2ccccc2)c1 (centres undefined) | 83 to 86
50 | COC(=O)c1ccc(C#N)c(OC)n1 | 125

Row | Compound | melting point [°C]
51 | Cc1c(C(=O)NCc2ccccc2)nc2n1CCc1ccccc1C2OC1CCN(C)CC1 (centres undefined) | 161
52 | CCOC(=O)C(Cl)=Cc1cc(NC(=O)C2=C(C(N)=O)CCCC2)ccc1Cl | 185 to 186
53 | c1csc(CNCc2ccc(-c3cc4ncnc(Nc5ccc6[nH]ccc6c5)c4s3)cc2)c1 | 111 to 121
54 | CCOC(=O)CCc1ccc(CBr)cc1 | 132
55 | Cn1cc(C=CC(=O)NC2CC2)c([N+](=O)[O-])n1 | 183 to 185
56 | O=CCOc1ccc(CCC(=O)O)cc1 | 95 to 100
57 | Cn1cc(C2=C(c3c4n(c5ccccc35)CCC(CNC(=O)c3ccccc3)C4)C(=O)NC2=O)c2ccccc21 (centres undefined) | 297 to 303
58 | O=C1Nc2cc(Cl)ccc2Sc2cscc21 | 267 to 269
59 | CSc1ccc2c(c1)N(CCCN1CCC(C(O)F)CC1c1ccccc1)c1ccccc1S2 (centres undefined) | 60
60 | COc1ccc(C(=O)Nc2c(Cl)cncc2Cl)cc1OC1CCCC1 | 153 to 155
61 | Cc1[nH]c2ncnc(Nc3cccc(Br)c3)c2c1C | 243 to 244
62 | COc1cc(OC(=O)C(C)C)c2c(=O)c(OC)c(-c3ccc(OC(=O)C(C)(C)C)c(OC)c3)oc2c1 | 151 to 152
63 | COc1cc(F)cc(-c2ccc3c(c2)C(C)(C)OC(=O)N3)c1 | 181 to 182
64 | Cc1cccc(C)c1NC(=O)CSc1cc(C(C)(C)C)c(O)c(C(C)(C)C)c1 | 138
65 | CCSC(=O)CCS(=O)CC (centres undefined) | 35.5 to 36
66 | CC(C)n1nc(CC(=O)c2ccc(F)cc2)ccc1=O | 67 to 68
67 | COc1cc(C(=O)C=Cc2cccnc2)cc(OC)c1OC | 137 to 138
68 | CC(C)c1cn(C)cc(-c2ccc(Cl)c(C(F)(F)F)c2)c1=O | 85 to 87
69 | CCOc1cc(-c2ccccc2)nc2nn(C)cc12 | 170 to 171
70 | C#CCC(O)(Cn1cncn1)c1ccc(Oc2ccc(Cl)cc2)cc1Cl (centres undefined) | 124
71 | CN(C)c1cccc(S(=O)Nc2ccccc2)c1 (centres undefined) | 86 to 87
72 | O=C(O)c1ccc(OCCCCO)cc1 | 124
73 | CC(=O)Nc1nc(CCc2ccc(NC(=NC(=O)OC(C)(C)C)NC(=O)OC(C)(C)C)cc2)c(C(=O)O)s1 | 222 to 223
74 | CCCCOC(=O)c1ccccc1SN(C(=O)NC(=O)c1c(F)cccc1F)c1ccc(C(F)(F)F)cc1 | 79 to 81
75 | O=C(O)/C=C/c1c(C2CC2)nc2ccccc2c1-c1ccc(F)cc1 | 173 to 174

Row | Compound | melting point [°C]
76 | O=C(O)C1CCC(c2ccc(OCc3ccc4ccccc4n3)cc2)(c2ccc(OCc3ccc4ccccc4n3)cc2)CC1 | 194 to 199
77 | CCOC(=O)c1csc(Nc2ccc(F)cc2)n1 | 133 to 136
78 | CC(C)(C)NC(=O)N1CCn2c(Cl)c(-c3ccccc3)c(C(N)=O)c2C1 | 192 to 195
79 | Cc1c(NCCCNCC(O)COc2ccccc2)n(C)c(=O)n(C)c1=O (centres undefined) | 132 to 133
80 | COC(=O)[C@@H]1C(=O)c2cc(OCc3ccccc3)ccc2[C@H]1c1ccc2c(c1)OCO2 (racemic) | 148 to 150
81 | O=C1C(c2c[nH]c3ccccc23)C(c2c[nH]c3ccccc23)C(=O)N1c1ccccc1 (centres undefined) | 260 to 263
82 | CS(=O)(=O)Oc1cnc2cc(C(F)(F)F)ccc2c1O | 220
83 | COc1c(N2CC(=NO)C3(CC3)C2)c(F)cc2c(=O)c(C(=O)O)cn(C3CC3)c12 | 233 to 235
84 | COc1ccc2c(c1)c(Cc1nc(-c3ccc(F)cc3F)cs1)c(C)n2C(=O)c1ccc(Cl)cc1 | 134 to 136
85 | CC(C)(C)c1nc2cc(N3CCCC3)c(NC(N)=S)cc2s1 | 221
86 | O=C(c1ccc(-c2ccn(C(=O)C3CC3)n2)cc1)N1Cc2cccn2Cc2ccccc21 | 197 to 199
87 | CC(C)n1nc(-c2cc(C#N)cnc2-c2ccccc2)ccc1=O | 133 to 135
88 | COc1cc2ncnc(N3CCN(C(=S)Nc4cc(O)nc(O)n4)CC3)c2cc1OC | 283 to 285
89 | CCCSc1nc(N)n(-c2nnc(-c3ccccc3O)s2)n1 | 195 to 198
90 | CCC1C(C)=NN=C(c2ccc(OC)c(OC)c2)c2cc(OC)c(OCCCN(C)C)cc21 (centres undefined) | 126 to 128
91 | CNc1ccc2c(c1N)C(=O)OC21c2cc(F)c(O)cc2Oc2cc(O)c(F)cc21 | 265
92 | O=c1[nH]c2ccc(N3CCN(Cc4ccccc4)CC3)cc2c(=O)o1 | 235
93 | Clc1cc(Cl)n2nc(SCc3ccccc3)nc2c1 | 88 to 89
94 | c1cc(-c2cncnc2)cc(-n2cnc3cc(-c4ccoc4)ccc32)c1 | 216 to 218
95 | C(=Cc1ccccc1)COc1ccc2c(c1)OCO2 | 83
96 | CCCCc1nc(I)c(CO)[nH]1 | 166
97 | CCCCCCCCCCCCCCCCCCOc1cccc(NCC(=O)O)c1 | 92
98 | CC(C)(C)Nc1nc2cc(Cl)c(Cl)cc2[nH]1 | 219 to 221
99 | CN(C)CC(C(O)c1ccc(N)cc1)N1CCC(Cc2ccccc2)CC1 (centres undefined) | 121 to 125
